Results: ChEMBL document CHEMBL4831553, “Heterocyclic Compounds as Dihydroorotate Dehydrogenase Inhibitors for Treating Acute Myelogenous Leukemia (AML)” (ACS Med Chem Lett, 2021)

Assays:
[1] = target: Dihydroorotate dehydrogenase (quinone), mitochondrial (Homo sapiens, UniProt Q02127); experiment: Inhibition of human DHODH using dihydroorotate as substrate and CoQ6 as co-substrate by DCIP dye based spectrophotometry analysis
MOLM-13 = experiment: Antiproliferative activity against human MOLM-13 assessed as reduction in cell viability incubated for 72 hrs by Cell titer-Glo assay; format: functional, cell-based; conditions: MOLM-13, 72 h

Dihydroorotate dehydrogenase (quinone), mitochondrial, sequence (Q02127 whole entry): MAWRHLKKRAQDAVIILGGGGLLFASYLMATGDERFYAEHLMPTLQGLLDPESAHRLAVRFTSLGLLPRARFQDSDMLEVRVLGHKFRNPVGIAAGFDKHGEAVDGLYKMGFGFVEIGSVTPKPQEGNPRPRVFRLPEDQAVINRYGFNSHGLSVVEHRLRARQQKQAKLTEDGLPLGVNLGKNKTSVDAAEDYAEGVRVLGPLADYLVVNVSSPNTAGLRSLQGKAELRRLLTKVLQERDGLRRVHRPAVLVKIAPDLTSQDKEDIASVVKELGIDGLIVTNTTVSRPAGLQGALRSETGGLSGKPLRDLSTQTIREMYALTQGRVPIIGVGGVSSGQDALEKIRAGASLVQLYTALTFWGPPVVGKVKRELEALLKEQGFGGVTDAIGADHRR

Row | IC50 [1] [nM] | IC50 (MOLM-13) [nM] | SMILES
1 | 0.38 | 0.46 | CCn1c(CO)nn(-c2nc(O[C@@H](C)C(F)(F)F)c3c(Nc4c(F)cccc4Cl)nncc3c2F)c1=O
2 | 0.59 | 0.4 | CCn1c(CO)nn(-c2nc(OC(C)C(F)(F)F)c3c(Oc4c(F)cccc4Cl)nccc3c2F)c1=O (configuration not stated)
3 | 0.3 | 0.3 | CCn1c(CO)nn(-c2cc(O[C@@H](C)C(F)(F)F)c3c(Oc4c(F)ccc(OC)c4Cl)nccc3c2)c1=O
4 | 0.4 | 0.3 | CCn1c(CO)nn(-c2cc(O[C@@H](C)C(F)(F)F)c3c(Oc4c(F)ccc(N(C)C)c4Cl)nccc3c2)c1=O
5 | 0.41 | 0.3 | CCn1c(CO)nn(-c2cc(O[C@@H](C)C(F)(F)F)c3c(Oc4c(F)ccc(OCCOC)c4Cl)nccc3c2)c1=O
6 | 0.2 | 0.2 | CCn1c(CO)nn(-c2nc(O[C@@H](C)C(F)(F)F)c3c(Oc4c(F)cccc4Cl)nncc3c2F)c1=O
